Assay results published in US10067142B2, “Method for diagnosing, treating, or preventing mood disorder” (priority 2014, dated 2018).
Read-outs that look alike come from different tables or passages of the source.

Experiments:
[1] = test system: SITH-1/Adv nasal administration mice; assay: Tail suspension test of SSRI-treated SITH-1/Adv nasal administration mice; type: in vivo; details: 80 mg/L Fluoxetine solution as drinking water from 2 weeks before nasal SITH-1/Adv; test 7 days after nasal administration, 10 minutes
Procedure: 8-week-old C57BL/6NCrSlc mice were raised at a room temperature of 24±1° C. and with lights on for 12 hours and off for 12 hours. After each of the mice was anesthetized with use of isoflurane, SITH-1/Adv or empty/Adv in an amount equivalent to 2.5×10^7 ifu was dropped onto the nasal cavity, and was then sucked along with breathing. Then, the mice were returned to raising cages.
7 days after the nasal administration of SITH-1/Adv or empty/Adv, a tail suspension test was carried out for 10 minutes. A period of immobility time was measured with use of TailSuspScanTopScan (CleverSys, Inc.). The tail suspension test was carried out by suspending each mouse by taping the tail 1 cm from the end. […] In the experiment, 30 mice were used in each group.
Then, it was studied whether or not an SSRI (selective serotonin reuptake inhibitor), which is an antidepressant, would restrict an increase in immobility time, the increase being caused by the nasal administration of the SITH-1/Adv. 80 mg/L of Fluoxetine solution as drinking water was given to 6-week-old mice (see Literature 18), and then the mice were raised for 2 weeks. Then, SITH-1/Adv was nasally administered. 7 days after the nasal administration, a tail suspension test was carried out for 10 minutes. […] Statistical significance (* indicates P<0.05, ** indicates P<0.01, and *** indicates P<0.001) was calculated by use of the Mann-Whitney U-test.

Bcl-2 = details: Literatures 13 through 16, cited from earlier work
HHV-6 HST strain = assay: SITH-1 expression in HHV-6-infected U373 cells pre-reacted with heparin or anti-heparan sulfate peptide; type: cell-based; details: cells reacted with 10 unit/mL Novo-Heparin at 4° C. for 1 hour before infection; MOI 3; 48 hours
Procedure: U373 astrocytoma cells were removed with use of trypsin-EDTA, and then a medium (10% FBS-containing DMEM) was added, so that the resultant cells were at 1×10^5 cell/mL. Then, the U373 cells were reacted with 10 unit/mL of Novo-Heparin (Mochida Pharmaceutical Co., Ltd.) or 0.1 mM of anti-3-OS Heparan sulfate (HS) peptide trifluoroacetate salt (Sigma-Aldrich) at 4° C. for 1 hour. The U373 cells were also reacted only with a medium as a control at 4° C. for 1 hour. The resultant cells were washed 3 times with a medium. Then, the U373 cells thus washed were infected with a HHV-6 HST strain virus fluid (2.9×10^6 ffu/ml) at a MOI of 3 by centrifugation. Then, the infected cells were cultured at 37° C. for 48 hours in a CO2 incubator.
From the resultant infected cells, RNA was purified by use of RNeasy Mini Kit (Qiagen) in accordance with the standard protocol. Then, cDNA was synthesized by use of a PrimeScript RT Reagent Kit (Takara Bio). Finally, expression levels of SITH-1 and GAPDH mRNA were measured by a method similar to that used in the above (3.1).

Compound | Bcl-2 expression in the brain (Bcl-2) | other results
CNCCC(Oc1ccc(C(F)(F)F)cc1)c1ccccc1 (stereo not shown) [Fluoxetine] | promotes Bcl-2 expression | immobility time increases in tail suspension test [1]: restricted; Bcl-2 expression in the brain (Bcl-2; listed as fluoxetine): promote Bcl-2 expression in the brain
heparin |  | SITH-1 expression in U373 cells (HHV-6 HST strain): restricted
CNCCCN1c2ccccc2CCc2ccccc21 [desipramine] | promote Bcl-2 expression in the brain | 
CCOc1ccccc1OC(c1ccccc1)C1CNCCO1 (stereo not shown) [reboxetine] | promote Bcl-2 expression in the brain | 
CN(C)CCC=C1c2ccccc2CCc2ccccc21 [amitriptyline] | promote Bcl-2 expression in the brain | 
N[C@@H]1C[C@H]1c1ccccc1 (racemic) [tranylcypromine] | promote Bcl-2 expression in the brain | 
CN(C)CCCN1c2ccccc2CCc2ccccc21 [imipramine] | promote Bcl-2 expression in the brain | 
COc1ccc(C(CN(C)C)C2(O)CCCCC2)cc1 (stereo not shown) [venlafaxine] | promote Bcl-2 expression in the brain | 
